Source: the NIST ThermoML archive (doi:10.1021/acs.jced.5b00259)

Assay: xn = mol fraction of the nth substance listed
Conditions: 100 kPa, Liquid

CC[NH+]=C(N(C)C)N(C)C.O=S(=O)([N-]S(=O)(=O)C(F)(F)F)C(F)(F)F + CCO
Conditions	mass density [kg/m3]	viscosity [mPa·s]
293.15 K, x1 = 0.1006	1023.01	2.873
293.15 K, x1 = 0.2004	1148.25	5.27
293.15 K, x1 = 0.3001	1225.91	8.21
293.15 K, x1 = 0.4005	1278.7	13.14
293.15 K, x1 = 0.5018	1316.97	19.52
293.15 K, x1 = 0.6011	1345.48	27.48
293.15 K, x1 = 0.6999	1367.71	36.42
293.15 K, x1 = 0.802	1386.71	47.47
293.15 K, x1 = 0.892	1400.66	59.17
293.15 K, x1 = 1	1414.89	74.61
298.15 K, x1 = 0.1006	1018.29	2.557
298.15 K, x1 = 0.2004	1143.37	4.596
298.15 K, x1 = 0.3001	1221.07	7.081
298.15 K, x1 = 0.4005	1273.82	11.13
298.15 K, x1 = 0.5018	1312.1	16.32
298.15 K, x1 = 0.6011	1340.6	22.71
298.15 K, x1 = 0.6999	1362.79	29.85
298.15 K, x1 = 0.802	1381.82	38.34
298.15 K, x1 = 0.892	1395.79	47.22
298.15 K, x1 = 1	1410.03	58.86
303.15 K, x1 = 0.1006	1013.56	2.289
303.15 K, x1 = 0.2004	1138.51	4.049
303.15 K, x1 = 0.3001	1216.29	6.157
303.15 K, x1 = 0.4005	1268.94	9.534
303.15 K, x1 = 0.5018	1307.24	13.8
303.15 K, x1 = 0.6011	1335.71	19.1
303.15 K, x1 = 0.6999	1357.94	24.85
303.15 K, x1 = 0.802	1376.95	31.52
303.15 K, x1 = 0.892	1390.94	38.37
303.15 K, x1 = 1	1405.19	47.27
308.15 K, x1 = 0.1006	1008.82	2.058
308.15 K, x1 = 0.2004	1133.65	3.587
308.15 K, x1 = 0.3001	1211.51	5.391
308.15 K, x1 = 0.4005	1264.09	8.252
308.15 K, x1 = 0.5018	1302.36	11.95
308.15 K, x1 = 0.6011	1330.83	16.25
308.15 K, x1 = 0.6999	1353.07	20.96
308.15 K, x1 = 0.802	1372.11	26.35
308.15 K, x1 = 0.892	1386.12	31.73
308.15 K, x1 = 1	1400.38	38.71
313.15 K, x1 = 0.1006	1004.07	1.861
313.15 K, x1 = 0.2004	1128.85	3.213
313.15 K, x1 = 0.3001	1206.71	4.757
313.15 K, x1 = 0.4005	1259.25	7.206
313.15 K, x1 = 0.5018	1297.45	10.32
313.15 K, x1 = 0.6011	1325.97	13.99
313.15 K, x1 = 0.6999	1348.22	17.94
313.15 K, x1 = 0.802	1367.28	22.3
313.15 K, x1 = 0.892	1381.31	26.65
313.15 K, x1 = 1	1395.59	32.2
318.15 K, x1 = 0.1006	999.26	1.689
318.15 K, x1 = 0.2004	1124.03	2.884
318.15 K, x1 = 0.3001	1201.81	4.227
318.15 K, x1 = 0.4005	1254.43	6.344
318.15 K, x1 = 0.5018	1292.57	8.977
318.15 K, x1 = 0.6011	1321.11	12.15
318.15 K, x1 = 0.6999	1343.4	15.52
318.15 K, x1 = 0.802	1362.45	19.11
318.15 K, x1 = 0.892	1376.52	22.55
318.15 K, x1 = 1	1390.8	27.09
323.15 K, x1 = 0.1006	994.44	1.515
323.15 K, x1 = 0.2004	1119.21	2.606
323.15 K, x1 = 0.3001	1197.01	3.78
323.15 K, x1 = 0.4005	1249.62	5.627
323.15 K, x1 = 0.5018	1287.74	7.837
323.15 K, x1 = 0.6011	1316.28	10.65
323.15 K, x1 = 0.6999	1338.59	13.58
323.15 K, x1 = 0.802	1357.63	16.54
323.15 K, x1 = 0.892	1371.74	19.32
323.15 K, x1 = 1	1386.03	23.14
